{
  "source": "patent US12707803B2",
  "about": "“Light-emitting device” (Semiconductor Energy Laboratory Co., Ltd., priority 2022, dated 2026)",
  "experiment": "water solubility of materials added to electron-injection buffer region",
  "format": "physicochemical",
  "source_text": "The table below lists the number of hydrophilic hpp groups, the number of hydrophobic tert-butyl groups, and water solubility of the materials added to the electron-injection buffer regions 914 in the light-emitting devices 7A to 7K.",
  "data": [
    {"compound": "CC(C)(C)c1ccc2c(c1)C1(c3cc(N4CCCN5CCCN=C54)ccc3-c3ccc(N4CCCN5CCCN=C54)cc31)c1cc(C(C)(C)C)ccc1-2", "note": "[2′,7′tBu-2,7hpp2SF, 1,1′-(2′,7′-di-tert-butyl-9,9′-spirobi[9H-fluorene]-2,7-diyl)bis(1,3,4,6,7,8-hexahydro-2H-pyrimido[1,2-a]pyrimidine)]", "values": [
      {"measurement": "solubility", "result": "0.058 to 0.062", "unit": "mg/mL"}
    ]}
  ]
}
